The values below come from patent US20240225978A1, “METHODS AND COMPOSITIONS FOR PHARMACOLOGICAL TREATMENT OF BLEPHAROPTOSIS” (priority 2021, published 2024).

For data set [1], the system named is α adrenergic receptors within Müller's muscle. Particulars: ophthalmic use for pupil dilation; background statement; cited from earlier work.
The test system of data set [2] is functional blepharoptosis. Briefly: Randomized, double-blinded, controlled study of blepharoptosis treatment with naphazoline 0.1% ophthalmic solution. It is filed as in vivo, human. As for the experimental part: To evaluate the effects of an ophthalmic solution containing an α adrenergic agonist on blepharoptosis, a randomized, double-blinded, controlled study was conducted using naphazoline 0.1%. Participants with either unilateral or bilateral upper eyelid blepharoptosis were randomized to receive either control eye drops (control group) or an ophthalmic solution containing active ingredient naphazoline 0.1% (treatment group).
The composition of the treatment group included naphazoline hydrochloride (concentration 0.1% w/v), sodium chloride, boric acid, calcium chloride, magnesium chloride, potassium chloride, sodium borate, PURITE®, methylcellulose, and purified water. The ophthalmic drops of the control group were composed of all of the preceding compounds except for naphazoline hydrochloride.
Baseline external photographs of all participants were obtained before eye drop administration. Visual field and contrast sensitivity testing were also tested at baseline. Visual field testing was conducted using an OCULUS Easyfield® perimeter. Contrast sensitivity was tested using a Pelli-Robson Contrast Sensitivity Chart (Pelli D G, Robson J, Wilkins A J. The design of a new letter chart for measuring contrast sensitivity. Clin Vision Sci. 1988; 2187-99). After one eye drop was administered to one or both eyes depending on the presence of unilateral or bilateral blepharoptosis, a second photo was obtained 30 minutes later. After 60 minutes, visual field and contrast sensitivity tests were repeated. After 120 minutes, a third and final photo was obtained.
MRD-1 is the distance in millimeters from the upper eyelid margin to the light reflex within the pupil. Measurements were made using Image J software (US National Institutes of Health, Bethesda, MD, U.S.A., http://imagej.nih.gov/ij) by a single designated, blinded investigator. The pupil diameter was also measured at all time points. Secondary effects were recorded and included subject-reported eye irritation, pain, blurry vision, light sensitivity, as well as examiner-noted eye injection, eyelid retraction, and pupil diameter. MRD-1 at the two post-administration time points constituted the primary endpoint. Secondary endpoints included visual field assessment and contrast sensitivity testing.

For data set [3], the system named is cosmetic blepharoptosis. In words: Case study of cosmetic blepharoptosis treatment with naphazoline 0.1%. It is filed as in vivo, human. As for the experimental part: They also had brow asymmetry due to compensatory right eyebrow elevation, a separate cosmetic concern. One drop of an ophthalmic solution containing naphazoline 0.1% was administered to the right eye. After 30 minutes, the eyelid was over-elevated with an MRD-1 of 5.5 mm due to continued compensatory brow elevation of the subject's right eyebrow (FIG. 5b). […] Three hours after drop administration, the eyelid and brow symmetry were maintained (FIG. 5d).

In data set [4] the test system is cosmetic blepharoptosis. In words: Controlled study of topical naphazoline 0.1% to improve cosmetic blepharoptosis. It is filed as in vivo, human. As to the method:
A comparative study was conducted to investigate the effect of an ophthalmic solution containing naphazoline 0.1% on cosmetic blepharoptosis. Two groups, the control group and treatment group each consisting of 5 subjects, were matched in terms of age and gender. The control group received one drop of normal saline while the treatment group received one drop of an ophthalmic solution containing naphazoline 0.1%. At both 30 minutes and 120 minutes after drop administration, external photographs were obtained and analyzed using Image J imaging software. MRD-1 and the distance between the upper and lower eyelid margins were measured to quantitatively assess cosmetic blepharoptosis. Secondary effects were also recorded, including conjunctival injection, eye pain or irritation, light sensitivity, and pupil size.

Data set [5] concerns functional blepharoptosis. In words: Randomized, controlled study of blepharoptosis treatment with tetrahydrozoline 0.1% ophthalmic solution. It is filed as in vivo, human. As for the experimental part: To evaluate the effects of an ophthalmic solution containing an α adrenergic agonist (tetrahydrozoline) on blepharoptosis, a randomized, controlled study was conducted. Participants with both unilateral or bilateral blepharoptosis were randomized to receive either the control eye drop or an ophthalmic solution containing active ingredient tetrahydrozoline 0.1%. Subjects and drop administrators were blinded to the intervention. […] The composition of the treatment group included tetrahydrozoline hydrochloride (concentration 0.1% w/v), sodium chloride, boric acid, calcium chloride, magnesium chloride, potassium chloride, sodium borate, PURITE®, methylcellulose, and purified water. The ophthalmic drops of the control group were composed of all of the preceding compounds except for tetrahydrozoline hydrochloride. Baseline external photographs of all participants were obtained before eye drop administration. After one eye drop was administered, a second photo was obtained 30 minutes later. After 90 minutes, a third and final photo was obtained. The pupil diameter in millimeters was also measured in photos at all time points. Measurements were made using Image J software by a single designated, blinded investigator. Secondary effects from the intervention were recorded including subject-reported eye irritation, pain, blurry vision, light sensitivity, as well as examiner-noted eye injection, eyelid retraction, and pupil size change from baseline.

Structures can show the parent of a compound that is named as a salt.

Turning to `CNC[C@H](O)c1cccc(O)c1` [phenylephrine], in data set [1], the “duration of pupillary dilation and disabling light sensitivity” value was “up to seven hours”; the “duration of the effect of eyelid elevation” value is on record as “less than ten minutes”.
`c1ccc2c(CC3=NCCN3)cccc2c1` [Naphazoline, naphazoline hydrochloride]: the “difference in proportion of individuals who reported minor side effects, treatment vs control group” value in data set [2] (0.1% ophthalmic solution) is listed as “not statistically significant”. For the same molecule, the “visual field and contrast sensitivity improvement compared to the control group” value in data set [2] (0.1% ophthalmic solution, 60 minutes after drop) is “greater”. For the same molecule, the “improvement in MRD-1 compared to the control group” value in data set [2] (0.1% ophthalmic solution, at 30 minutes and 120 minutes) is “statistically significant improvement”. The “Contrast Sensitivity Δ (mean)” value in data set [2] (Pelli-Robson chart, 60 minutes after one drop 0.1%, baseline 1.29, control 0.03, P 0.03) was 0.69. In addition, the “MRD1 Δ 30 minutes (mean, mm)” value in data set [2] (one drop of 0.1% w/v ophthalmic solution, 19 subjects, baseline MRD1 0.93 mm, 30 minutes after drop, control 0.02, P <0.001) came to 2.15 mm. Also, the “MRD1 Δ 120 minutes (mean, mm)” value in data set [2] (one drop of 0.1% w/v ophthalmic solution, 19 subjects, 120 minutes after drop, control 0.01, P 0.009) came to 2.08 mm. Besides, in data set [2] (one drop of ophthalmic composition 0.1% administered twice daily (as summarised in b67 for Example 1)), the “overall effect on eyelids, visual field, contrast sensitivity and cosmetic appearance” value is “resulted in eyelid elevation, improvement of a superior visual field defect, increased contrast sensitivity, and improved cosmetic appearance of the eyes, eyelids, and eyebrows”. In addition, the “Secondary Effects (%)” value in data set [2] (proportion of subjects, one drop 0.1%, control 9.5, P 0.17) was determined as 10.5%. In addition, in data set [2] (visual field, OCULUS Easyfield perimeter, 60 minutes after one drop 0.1%, baseline 33.8, control 2.1, P <0.001), the “VF Δ (mean, % correct)” value was found to be 56.6 % correct. Further, the “eyelid and brow symmetry after brow relaxation” value in the data set on cosmetic blepharoptosis [3] (one drop 0.1%, FIG. 5c (120 minutes)) is “achieved both eyelid and brow symmetry”. Also, the “eyelid and brow symmetry three hours after drop administration” value in the data set with cosmetic blepharoptosis [3] (one drop 0.1%, three hours) is given as “maintained”. For the same molecule, the “MRD-1 of the right eye” value in the data set with cosmetic blepharoptosis [3] (subject, one drop 0.1% ophthalmic solution to the right eye, after 30 minutes, baseline 2.5 mm, eyelid over-elevated due to compensatory brow elevation) was 5.5 mm. The “difference in secondary effects, including pupil size, between the two groups” value in the data set with cosmetic blepharoptosis [4] (0.1% ophthalmic solution) is “no difference”. In the data set on cosmetic blepharoptosis [4] (0.1% ophthalmic solution, 30 and 120 minutes), the “improvement in MRD-1 and eyelid separation compared to the control group” value is given as “statistically significant improvement”. Also, the “MRD1 Δ 30 minutes (mean, %)” value with cosmetic blepharoptosis [4] (one drop 0.1% ophthalmic solution, 5 subjects, baseline MRD1 2.4 mm, control (normal saline) 3.8, P 0.01) was found to be 42%. Further, in the data set on cosmetic blepharoptosis [4] (one drop 0.1% ophthalmic solution, 5 subjects, control 1.9, P 0.02), the “MRD1 Δ 120 minutes (mean, %)” value worked out at 38%. Further, the “Eyelid Margin Distance Δ 120 minutes (mean, mm)” value with cosmetic blepharoptosis [4] (one drop 0.1%, control 0.02, P 0.03) is given as 1.33 mm. Also, in the data set on cosmetic blepharoptosis [4] (one drop 0.1%, control 6.7, P 0.37), the “Pupil Size Δ 30 minutes (mean, %)” value is recorded as 10%. The “Minor Side Effects (%)” value in the data set with cosmetic blepharoptosis [4] (one drop 0.1%, control 20, P 0.49) turned out to be 20%. Further, the “Eyelid Margin Distance Δ 30 minutes (mean, mm)” value with cosmetic blepharoptosis [4] (one drop 0.1%, distance between upper and lower eyelid margins, control 0.03, P 0.009) came to 1.45 mm.
As for `c1ccc2c(c1)CCCC2C1=NCCN1` (centres unmarked) [Tetrahydrozoline, tetrahydrozoline hydrochloride], in data set [5] (0.1% ophthalmic solution), the “difference in proportion of individuals who reported minor side effects, treatment vs control group” value is given as “not statistically significant” and the “pupillary size change compared to the control” value is on record as “greater in the treatment group compared to the control, however, this change was not statistically significant”. Further, the “blepharoptosis improvement compared to the control group” value in data set [5] (0.1% ophthalmic solution, both time points) was “statistically significant at both time points”. Besides, in data set [5] (one drop 0.1%, control 2.1, P 0.07), the “Minor Side Effects (%)” value came out at 6.7%. The “Pupil Size Δ 30 minutes (mean, %)” value in data set [5] (one drop 0.1%, control 5.8, P 0.09) worked out at 9.3%. Also, in data set [5] (one drop of 0.1% w/v ophthalmic solution, 11 subjects, baseline MRD1 0.85 mm, control 0.04, P 0.01), the “MRD1 Δ 30 minutes (mean, mm)” value turned out to be 2.01 mm. Besides, in data set [5] (one drop of 0.1% w/v ophthalmic solution, 11 subjects, control 0.02, P 0.009), the “MRD1 Δ 120 minutes (mean, mm)” value is 1.97 mm.
